From patent US8613914B2, “Peptidomimetic sulfamide compounds and antiviral uses thereof” (Novartis AG, priority 2009, dated 2013)

These compounds were tested against HCV NS3-4A serine protease (full-length NS3-4A protein) (Hepatitis C virus genotype 1a (isolate 1) (HCV), UniProt P26664) (assay: HCV NS3-4A protease assay). Conditions: strain HCV-1, fluorogenic peptide substrate, read-out: Protease assay Ex. 12 IC50.
Chain of HCV NS3-4A serine protease (full-length NS3-4A protein) (P26664 1027-1657): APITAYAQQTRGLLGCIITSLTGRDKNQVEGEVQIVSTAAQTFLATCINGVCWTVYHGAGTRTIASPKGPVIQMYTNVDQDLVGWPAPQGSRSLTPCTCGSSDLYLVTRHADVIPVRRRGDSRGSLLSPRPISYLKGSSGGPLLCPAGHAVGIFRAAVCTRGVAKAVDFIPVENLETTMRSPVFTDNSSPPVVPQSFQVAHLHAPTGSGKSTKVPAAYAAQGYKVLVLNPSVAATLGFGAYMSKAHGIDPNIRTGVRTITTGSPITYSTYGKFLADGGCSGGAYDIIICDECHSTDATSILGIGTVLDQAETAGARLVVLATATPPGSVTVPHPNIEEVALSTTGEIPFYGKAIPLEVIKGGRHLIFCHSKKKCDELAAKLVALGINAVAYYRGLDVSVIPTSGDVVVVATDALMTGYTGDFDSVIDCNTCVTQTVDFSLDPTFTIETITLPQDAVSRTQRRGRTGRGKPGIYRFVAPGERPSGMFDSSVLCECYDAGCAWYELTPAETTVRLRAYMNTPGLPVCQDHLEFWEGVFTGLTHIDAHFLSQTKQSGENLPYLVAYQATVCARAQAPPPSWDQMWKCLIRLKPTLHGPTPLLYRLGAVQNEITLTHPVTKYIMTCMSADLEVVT
Chain of HCV NS3-4A serine protease (full-length NS3-4A protein) (P26664 1658-1711 partner): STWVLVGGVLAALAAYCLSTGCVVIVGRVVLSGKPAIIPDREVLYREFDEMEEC
Type: biochemical, HCV genotype 1a
Method: The inhibitory activity of certain compounds of Table A against HCV NS3-4A serine protease is determined in a homogenous assay using the full-length NS3-4A protein (genotype 1a, strain HCV-1) and a commercially available internally-quenched fluorogenic peptide substrate as described by Taliani, M., et al. 1996 Anal. Biochem. 240:60-67, which is incorporated by reference in its entirety.
`C=C[C@@H]1C[C@]1(NC(=O)[C@@H]1C[C@@]2(CN1C(=O)[C@@H](NC(=O)[C@@H](NC(=O)[C@H]1CCCCN1C(C)C)C1CCCCC1)C(C)(C)C)C(C)(C)C21CCC1)C(=O)NS(=O)(=O)N(C)C(C)C` [Compound 119, (5R,8S)-7-[(2S)-2-{[(2S)-2-cyclohexyl-2-({[(2R)-1-isopropylpiperidin-2-yl]carbonyl}amino)acetyl]amino}-3,3-dimethylbutanoyl]-N-[(1R,2S)-1-({[isopropyl(methyl)amino]sulfonyl}carbamoyl)-2-vinylcyclopropyl]-10,10-dimethyl-7-azadispiro[3.0.4.1]decane-8-carboxamide] gave an IC50 of 6.5 nM.
`C=C[C@@H]1C[C@]1(NC(=O)[C@@H]1C[C@@]2(CN1C(=O)[C@@H](NC(=O)[C@@H](NC(=O)[C@H]1CCCCN1C(C)C)C1CCCCC1)C(C)(C)C)C(C)(C)C21CCC1)C(=O)NS(=O)(=O)N(CC)C(C)C` [Compound 120, (5R,8S)-7-[(2S)-2-{[(2S)-2-cyclohexyl-2-({[(2R)-1-isopropylpiperidin-2-yl]carbonyl}amino)acetyl]amino}-3,3-dimethylbutanoyl]-N-[(1R,2S)-1-({[ethyl(isopropyl)amino]sulfonyl}carbamoyl)-2-vinylcyclopropyl]-10,10-dimethyl-7-azadispiro[3.0.4.1]decane-8-carboxamide] showed an IC50 of 10 nM.
With `CC[C@@H]1C[C@]1(NC(=O)[C@@H]1C[C@@]2(CN1C(=O)[C@@H](NC(=O)[C@@H](NC(=O)[C@H]1CCCCN1C(C)C)C1CCCCC1)C(C)(C)C)C(C)(C)C21CCC1)C(=O)NS(=O)(=O)N(CC)CC` [Compound 121, (5R,8S)-7-[(2S)-2-{[(2S)-2-cyclohexyl-2-({[(2R)-1-isopropylpiperidin-2-yl]carbonyl}amino)acetyl]amino}-3,3-dimethylbutanoyl]-N-[(1R,2R)-1-{[(diethylamino)sulfonyl]carbamoyl}-2-ethylcyclopropyl]-10,10-dimethyl-7-azadispiro[3.0.4.1]decane-8-carboxamide] the IC50 was 7 nM.
Work on `C=C[C@@H]1C[C@]1(NC(=O)[C@@H]1C[C@@]2(CN1C(=O)[C@@H](NC(=O)[C@@H](NC(=O)[C@@H]1CCCCN1C(C)C)C(C)C)C(C)(C)C)C(C)(C)C21CCC1)C(=O)NS(=O)(=O)N(CC)CC` [Compound 122, (5R,8S)-N-[(1R,2S)-1-{[(diethylamino)sulfonyl]carbamoyl}-2-vinylcyclopropyl]-7-[(2S)-2-{[(2S)-2-({[(2S)-1-isopropylpiperidin-2-yl]carbonyl}amino)-3-methylbutanoyl]amino}-3,3-dimethylbutanoyl]-10,10-dimethyl-7-azadispiro[3.0.4.1]decane-8-carboxamide] yielded an IC50 of 1.4 nM.
In the case of `CC[C@@H]1C[C@]1(NC(=O)[C@@H]1C[C@@]2(CN1C(=O)[C@@H](NC(=O)[C@@H](NC(=O)[C@H]1CCCCN1C(C)C)C1CCCCC1)C(C)(C)C)C(C)(C)C21CCC1)C(=O)NS(=O)(=O)N1CCCC1` [Compound 123, (5R,8S)-7-[(2S)-2-{[(2S)-2-cyclohexyl-2-({[(2R)-1-isopropylpiperidin-2-yl]carbonyl}amino)acetyl]amino}-3,3-dimethylbutanoyl]-N-{(1R,2R)-2-ethyl-1-[(pyrrolidin-1-ylsulfonyl)carbamoyl]cyclopropyl}-10,10-dimethyl-7-azadispiro[3.0.4.1]decane-8-carboxamide], the IC50 is reported as 8 nM.
With `C=C[C@@H]1C[C@]1(NC(=O)[C@@H]1C[C@@]2(CN1C(=O)[C@@H](NC(=O)[C@@H](NC(=O)[C@@H]1CCCCN1C(C)C)C1CCCCC1)C1(C)CCOCC1)C(C)(C)C21CCC1)C(=O)NS(=O)(=O)N1CCCC1` [Compound 124, (5R,8S)-7-[(2S)-2-{[(2S)-2-cyclohexyl-2-({[(2S)-1-isopropylpiperidin-2-yl]carbonyl}amino)acetyl]amino}-2-(4-methyltetrahydro-2H-pyran-4-yl)acetyl]-10,10-dimethyl-N-{(1R,2S)-1-[(pyrrolidin-1-ylsulfonyl)carbamoyl]-2-vinylcyclopropyl}-7-azadispiro[3.0.4.1]decane-8-carboxamide] the IC50 was 1.5 nM.
`C=C[C@@H]1C[C@]1(NC(=O)[C@@H]1C[C@@]2(CN1C(=O)[C@@H](NC(=O)[C@@H](NC(=O)[C@@H]1CCCN1CC)C1CCCCC1)C1(C)CCOCC1)C(C)(C)C21CCC1)C(=O)NS(=O)(=O)N1CCCC1` [Compound 125, (5R,8S)-7-[(2S)-2-{[(2S)-2-cyclohexyl-2-({[(2S)-1-ethylpyrrolidin-2-yl]carbonyl}amino)acetyl]amino}-2-(4-methyltetrahydro-2H-pyran-4-yl)acetyl]-10,10-dimethyl-N-{(1R,2S)-1-[(pyrrolidin-1-ylsulfonyl)carbamoyl]-2-vinylcyclopropyl}-7-azadispiro[3.0.4.1]decane-8-carboxamide] was tested, and the IC50 was < 0.3 nM.
Work on `C=C[C@@H]1C[C@]1(NC(=O)[C@@H]1C[C@@]2(CN1C(=O)[C@@H](NC(=O)[C@@H](NC(=O)[C@@H]1CCCN1CC)C(C)(C)C)C1(C)CCOCC1)C(C)(C)C21CCC1)C(=O)NS(=O)(=O)N1CCCC1` [Compound 126, 1-ethyl-L-prolyl-N-[(1S)-2-[(5R,8S)-10,10-dimethyl-8-({(1R,2S)-1-[(pyrrolidin-1-ylsulfonyl)carbamoyl]-2-vinylcyclopropyl}carbamoyl)-7-azadispiro[3.0.4.1]dec-7-yl]-1-(4-methyltetrahydro-2H-pyran-4-yl)-2-oxoethyl]-3-methyl-L-valinamide] yielded an IC50 of 6 nM.
`C=C[C@@H]1C[C@]1(NC(=O)[C@@H]1C[C@@]2(CN1C(=O)[C@@H](NC(=O)[C@@H](NC(=O)[C@@H]1CCCCN1C(C)C)C1CCOCC1)C1(C)CCOCC1)C(C)(C)C21CCC1)C(=O)NS(=O)(=O)N1CCCC1` [Compound 127, (5R,8S)-7-[(2S)-2-{[(2S)-2-({[(2S)-1-isopropylpiperidin-2-yl]carbonyl}amino)-2-(tetrahydro-2H-pyran-4-yl)acetyl]amino}-2-(4-methyltetrahydro-2H-pyran-4-yl)acetyl]-10,10-dimethyl-N-{(1R,2S)-1-[(pyrrolidin-1-ylsulfonyl)carbamoyl]-2-vinylcyclopropyl}-7-azadispiro[3.0.4.1]decane-8-carboxamide] was tested, and the IC50 was 4 nM.
In the case of `C=C[C@@H]1C[C@]1(NC(=O)[C@@H]1C[C@@]2(CN1C(=O)[C@@H](NC(=O)[C@@H](NC(=O)[C@@H]1CCCCN1C(C)C)C(C)(C)C)C1(C)CCOCC1)C(C)(C)C21CCC1)C(=O)NS(=O)(=O)N1CCCC1` [Compound 128, (5R,8S)-7-[(2S)-2-[(N-{[(2S)-1-isopropylpiperidin-2-yl]carbonyl}-3-methyl-L-valyl)amino]-2-(4-methyltetrahydro-2H-pyran-4-yl)acetyl]-10,10-dimethyl-N-{(1R,2S)-1-[(pyrrolidin-1-ylsulfonyl)carbamoyl]-2-vinylcyclopropyl}-7-azadispiro[3.0.4.1]decane-8-carboxamide], the IC50 is reported as 1.4 nM.
`C=C[C@@H]1C[C@]1(NC(=O)[C@@H]1C[C@@]2(CN1C(=O)[C@@H](NC(=O)[C@@H](NC(=O)[C@@H]1CCCN1CC)C1CCOCC1)C1(C)CCOCC1)C(C)(C)C21CCC1)C(=O)NS(=O)(=O)N1CCCC1` [Compound 129, (5R,8S)-7-[(2S)-2-{[(2S)-2-({[(2S)-1-ethylpyrrolidin-2-yl]carbonyl}amino)-2-(tetrahydro-2H-pyran-4-yl)acetyl]amino}-2-(4-methyltetrahydro-2H-pyran-4-yl)acetyl]-10,10-dimethyl-N-{(1R,2S)-1-[(pyrrolidin-1-ylsulfonyl)carbamoyl]-2-vinylcyclopropyl}-7-azadispiro[3.0.4.1]decane-8-carboxamide] was tested, and the IC50 was 6 nM.
Work on `C=C[C@@H]1C[C@]1(NC(=O)[C@@H]1C[C@@]2(CN1C(=O)[C@@H](NC(=O)[C@@H](NC(=O)[C@@H]1CCCCN1C(C)C)C(C)C)C(C)C)C(C)(C)C21CCC1)C(=O)NS(=O)(=O)N(CC)CC` [Compound 130, (5R,8S)-N-[(1R,2S)-1-{[(diethylamino)sulfonyl]carbamoyl}-2-vinylcyclopropyl]-7-[(2S)-2-{[(2S)-2-({[(2S)-1-isopropylpiperidin-2-yl]carbonyl}amino)-3-methylbutanoyl]amino}-3-methylbutanoyl]-10,10-dimethyl-7-azadispiro[3.0.4.1]decane-8-carboxamide] yielded an IC50 of 8 nM.
`C=C[C@@H]1C[C@]1(NC(=O)[C@@H]1C[C@@]2(CN1C(=O)[C@@H](NC(=O)[C@@H](NC(=O)[C@@H]1CCCCN1C(C)C)C(C)(C)C)C(C)C)C(C)(C)C21CCC1)C(=O)NS(=O)(=O)N(CC)CC` [Compound 131, (5R,8S)-N-[(1R,2S)-1-{[(diethylamino)sulfonyl]carbamoyl}-2-vinylcyclopropyl]-7-[(2S)-2-{[(2S)-2-({[(2S)-1-isopropylpiperidin-2-yl]carbonyl}amino)-3,3-dimethylbutanoyl]amino}-3-methylbutanoyl]-10,10-dimethyl-7-azadispiro[3.0.4.1]decane-8-carboxamide] showed an IC50 of 5.5 nM.
`C=C[C@@H]1C[C@]1(NC(=O)[C@@H]1C[C@@]2(CN1C(=O)[C@@H](NC(=O)[C@@H](NC(=O)[C@@H]1CCCCN1C(C)C)C1CCCCC1)C(C)C)C(C)(C)C21CCC1)C(=O)NS(=O)(=O)N(CC)CC` [Compound 132, (5R,8S)-7-[(2S)-2-{[(2S)-2-cyclohexyl-2-({[(2S)-1-isopropylpiperidin-2-yl]carbonyl}amino)acetyl]amino}-3-methylbutanoyl]-N-[(1R,2S)-1-{[(diethylamino)sulfonyl]carbamoyl}-2-vinylcyclopropyl]-10,10-dimethyl-7-azadispiro[3.0.4.1]decane-8-carboxamide] gave an IC50 of 2.8 nM.
